Experimental data from patent publication US20120302566A1, “INDANYLOXYDIHYDROBENZOFURANYLACETIC ACIDS” (BOEHRINGER INGELHEIM INTERNATIONAL GMBH, priority 2010, published 2012).

These compounds were tested against human GPR40 receptor (Homo sapiens, UniProt O14842) (assay: IP1 accumulation measurements using the IPOne assay system). Conditions: IP1 accumulation (IPOne HTRF), 1 hour stimulation; 1321N1 cells stably expressing human GPR40; read-out: EC50 values on GPR40 determined as described in (B).
Type: cell-based
Protocol: (B) IP1 accumulation measurements using the IPOne assay system—1321N1 cells stably expressing human GPR40 receptor (Euroscreen, Belgium) were seeded 24 h before the assay in black clear-bottom collagen-coated 384-well plates in culture medium containing 10% FCS, 1% Na-Pyruvate and 400 μg/mL G418. IP1 is assayed according to the Manufacturer's description (Cisbio Bioassays, France). In brief, the assay is started by substitution of the culture medium by stimulation buffer (Hepes 10 mM, CaCl2 1 mM, MgCl2 0.5 mM, KCl 4.2 mM, NaCl 146 mM and glucose 5.5 mM, pH 7.4) without LiCl. Cells are stimulated for 1 hour at 37°, 10% CO2 by addition of the compounds that were diluted in stimulation buffer containing LiCl yielding a final LiCl concentration of 50 mM. Assays are stopped by adding HTRF-conjugates (IP1-d2 and Anti-IP1 cryptate Tb) and lysis buffer, provided by the manufacturer. After an incubation time of 1 hour at room temperature plates are measured using an EnVision™, Perkin Elmer.

Sequence of human GPR40 receptor (O14842 whole entry): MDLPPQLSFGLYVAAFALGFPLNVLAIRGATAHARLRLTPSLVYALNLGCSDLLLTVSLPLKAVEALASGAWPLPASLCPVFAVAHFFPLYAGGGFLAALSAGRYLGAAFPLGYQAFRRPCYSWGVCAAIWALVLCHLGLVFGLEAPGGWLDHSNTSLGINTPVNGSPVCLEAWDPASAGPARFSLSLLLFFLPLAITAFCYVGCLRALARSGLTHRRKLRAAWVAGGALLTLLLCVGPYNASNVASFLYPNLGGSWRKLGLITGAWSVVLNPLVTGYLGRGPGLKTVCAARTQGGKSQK

Row | SMILES | EC50 [nM]
1 | CC(O)(c1cccc2c1CC[C@H]2Oc1ccc2c(c1)OC[C@H]2CC(=O)O)C(F)(F)F (stereo partly drawn) [Example 89, {(S)-6-[(R)-4-(2,2,2-Trifluoro-1-hydroxy-1-methyl-ethyl)-indan-1-yloxy]-2,3-dihydro-benzofuran-3-yl}-acetic acid] | 428
2 | Cc1ccc2c(c1C(F)(F)F)CC[C@H]2Oc1ccc2c(c1)OC[C@H]2CC(=O)O [Example 36, {(S)-6-[(R)-5-Methyl-4-trifluoromethyl-indan-1-yloxy]-2,3-dihydro-benzofuran-3-yl}-acetic acid] | 19
3 | CC1=C(c2cccc3c2CC[C@H]3Oc2ccc3c(c2)OC[C@H]3CC(=O)O)C(C)(C)CCC1 [Example 48, {(S)-6-[(R)-4-(2,6,6-Trimethyl-cyclohex-1-enyl)-indan-1-yloxy]-2,3-dihydro-benzofuran-3-yl}-acetic acid] | 16
4 | O=C(O)C[C@@H]1COc2cc(O[C@@H]3CCc4c(C5=CCCCC56CCOCC6)cccc43)ccc21 [Example 56, {(S)-6-[(R)-4-(3-Oxa-spiro[5.5]undec-7-en-7-yl)-indan-1-yloxy]-2,3-dihydro-benzofuran-3-yl}-acetic acid] | 124
5 | CC1OC(c2cccc3c2CC[C@H]3Oc2ccc3c(c2)OC[C@H]3CC(=O)O)C1(C)C (single isomer, unassigned) [Example 42] | 131
6 | CC(O)(CC1CCOCC1)c1cccc2c1CC[C@H]2Oc1ccc2c(c1)OC[C@H]2CC(=O)O (stereo partly drawn) [Example 83, ((S)-6-{(R)-4-[1-Hydroxy-1-methyl-2-(tetrahydro-pyran-4-yl)-ethyl]-indan-1-yloxy}-2,3-dihydro-benzofuran-3-yl)-acetic acid] | 392
7 | Cc1cccnc1-c1cccc2c1CC[C@H]2Oc1ccc2c(c1)OC[C@H]2CC(=O)O [Example 58, {(S)-6-[(R)-4-(3-Methyl-pyridin-2-yl)-indan-1-yloxy]-2,3-dihydro-benzofuran-3-yl}-acetic acid] | 534
8 | COc1ccc(C(F)(F)F)c(-c2cccc3c2CC[C@H]3Oc2ccc3c(c2)OC[C@H]3CC(=O)O)n1 [Example 91, {(S)-6-[(R)-4-(6-Methoxy-3-trifluoromethyl-pyridin-2-yl)-indan-1-yloxy]-2,3-dihydro-benzofuran-3-yl}-acetic acid] | 69
9 | Cc1cccc2cccc(-c3cccc4c3CC[C@H]4Oc3ccc4c(c3)OC[C@H]4CC(=O)O)c12 [Example 92, {(S)-6-[(R)-4-(8-Methyl-naphthalen-1-yl)-indan-1-yloxy]-2,3-dihydro-benzofuran-3-yl}-acetic acid] | 7
10 | O=C(O)C[C@@H]1COc2cc(O[C@@H]3CCc4c3cccc4N3CCOCC3)ccc21 [Example 65, {(S)-6-[(R)-4-Morpholin-4-yl-indan-1-yloxy]-2,3-dihydro-benzofuran-3-yl}-acetic acid] | 1850
11 | O=C(O)C[C@@H]1COc2cc(OC3CCc4ccccc43)ccc21 (stereo partly drawn) [Example 43] | 420
12 | Cc1nn(C)c(C)c1-c1cccc2c1CC[C@H]2Oc1ccc2c(c1)OC[C@H]2CC(=O)O [Example 49, {(S)-6-[(R)-4-(1,3,5-Trimethyl-1H-pyrazol-4-yl)-indan-1-yloxy]-2,3-dihydro-benzofuran-3-yl}-acetic acid] | 1910
13 | Cc1cn(C)c(=O)c(C)c1-c1cccc2c1CC[C@H]2Oc1ccc2c(c1)OC[C@H]2CC(=O)O [Example 61, {(S)-6-[(R)-4-(1,3,5-Trimethyl-2-oxo-1,2-dihydro-pyridin-4-yl)-indan-1-yloxy]-2,3-dihydro-benzofuran-3-yl}-acetic acid] | 155
14 | O=C(O)C[C@@H]1COc2cc(O[C@@H]3CCc4c(-c5cccnc5C(F)(F)F)cccc43)ccc21 [Example 73, {(S)-6-[(R)-4-(2-Trifluoromethyl-pyridin-3-yl)-indan-1-yloxy]-2,3-dihydro-benzofuran-3-yl}-acetic acid] | 2720
15 | Cc1ccccc1-c1cccc2c1CC[C@H]2Oc1ccc2c(c1)OC[C@H]2CC(=O)O [Example 62, {(S)-6-[(R)-4-o-Tolyl-indan-1-yloxy]-2,3-dihydro-benzofuran-3-yl}-acetic acid] | 52
